Laboratory results as given in patent US11691949B2, “Quinoline sulfonamide compounds and their use as antibacterial agents” (OTAGO INNOVATION LIMITED, priority 2017, dated 2023).
Values after ≈ are worked out from the molar mass of the structure shown. Like-named read-outs stand apart in the source and are kept apart here.

What was measured:
Type in all cases: cell-based
S. uberis ATCC 19436 = assay: MIC by broth microdilution, S. uberis; details: Streptococcus uberis, read-out: S. uberis ATCC 19436 MIC
Method in brief: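 Streptococcus uberis ATCC 19436 was tested in Todd Hewitt Broth by broth microdilution in 96-well flat bottom plates, in biological triplicate. Overnight cells were diluted to OD600 of approximately 0.025, giving about 5×10^5 cfu/mL in the wells. Compounds were serially diluted two-fold to 200 μl, incubated 24 h at 37° C. and 200 rpm, and the MIC was taken from OD600.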

S. aureus ATCC 6538 = assay: MIC by broth microdilution, S. aureus; details: Staphylococcus aureus, read-out: S. aureus ATCC 6538 MIC
Method in brief: (§1)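 Overnight cultures diluted to ~5×10^5 cfu/mL final; S. aureus in TSB and CAMHB, E. coli in LB and CAMHB, zinc sulphate to 50 μM final as required; two-fold serial dilutions. MIC = lowest concentration with no growth by OD600 after 24 h, 37° C, 200 rpm. MBC by Miles-Misra drop-plate viability count.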

E. coli ATCC 10596 = assay: MIC by broth microdilution, E. coli; details: Escherichia coli, read-out: E. coli ATCC 10536 MIC
Method in brief: as §1

[1] = ATCC 10536 / ATCC 10596, No Zinc
[2] = ATCC 10536 / ATCC 10596, Zinc (50 μM)

SMILES | MIC (S. uberis ATCC 19436; ATCC19436, No Zinc) [µg/mL] | MIC (S. uberis ATCC 19436; ATCC19436, Zinc (50 μM)) [µg/mL] | MIC (S. aureus ATCC 6538; ATCC6538, No Zinc) [µg/mL] | MIC (S. aureus ATCC 6538; ATCC6538, Zinc (50 μM)) [µg/mL] | MIC (E. coli ATCC 10596; [1]) [µg/mL] | MIC (E. coli ATCC 10596; [2]) [µg/mL]
CN(C)Cc1ccc2cccc(NS(=O)(=O)c3ccc(OC(F)F)cc3)c2n1 [ZDR306, 4-(Difluoromethoxy)-N-(2-((dimethylamino)methyl)quinolin-8-yl)benzenesulfonamide] | 128 (≈ 314 µM) | 0.125 (≈ 0.307 µM) | 128 (≈ 314 µM) | 128 (≈ 314 µM) | > 256 | > 256
CN(C)Cc1ccc2cccc(NS(=O)(=O)c3ccc(C(C)(C)C)cc3)c2n1 [ZDR307, 4-(tert-Butyl)-N-(2-((dimethylamino)methyl)quinolin-8-yl)benzenesulfonamide] | > 256 | 0.0625 (≈ 0.157 µM) | > 256 | > 256 | > 256 | > 256
COC(=O)c1cccc(S(=O)(=O)Nc2cccc3ccc(CN(C)C)nc23)c1 [ZDR308, Methyl 3-(N-(2-((dimethylamino)methyl)quinolin-8-yl)sulfamoyl)benzoate] | 256 (≈ 641 µM) | 0.25 (≈ 0.626 µM) | 256 (≈ 641 µM) | > 256 | 256 (≈ 641 µM) | > 256
CN(C)Cc1ccc2cccc(NS(=O)(=O)c3cccc(Br)c3)c2n1 [ZDR309, 3-Bromo-N-(2-((dimethylamino)methyl)quinolin-8-yl)benzenesulfonamide] | 128 (≈ 305 µM) | 0.125 (≈ 0.297 µM) | 64 (≈ 152 µM) | 128 (≈ 305 µM) | > 256 | > 256
CN(C)Cc1ccc2cccc(NS(=O)(=O)c3cccc(S(C)(=O)=O)c3)c2n1 [ZDR310, N-(2-((Dimethylamino)methyl)quinolin-8-yl)-3-(methylsulfonyl)benzenesulfonamide] | 256 (≈ 610 µM) | 4 (≈ 9.53 µM) | > 256 | > 256 | > 256 | > 256
CC(=O)c1cccc(S(=O)(=O)Nc2cccc3ccc(CN(C)C)nc23)c1 [ZDR311, 3-Acetyl-N-(2-((dimethylamino)methyl)quinolin-8-yl)benzenesulfonamide] | 256 (≈ 668 µM) | 0.0625 (≈ 0.163 µM) | > 256 | 256 (≈ 668 µM) | > 256 | > 256
CN(C)Cc1ccc2cccc(NS(=O)(=O)c3cccc(F)c3)c2n1 [ZDR312, N-(2-((Dimethylamino)methyl)quinolin-8-yl)-3-fluorobenzenesulfonamide] | 128 (≈ 356 µM) | 0.125 (≈ 0.348 µM) | 256 (≈ 712 µM) | 256 (≈ 712 µM) | > 256 | > 256
CN(C)Cc1ccc2cccc(NS(=O)(=O)c3cccc([N+](=O)[O-])c3)c2n1 [ZDR313, N-(2-((Dimethylamino)methyl)quinolin-8-yl)-3-nitrobenzenesulfonamide] | 128 (≈ 331 µM) | 0.25 (≈ 0.647 µM) | 128 (≈ 331 µM) | > 256 | > 256 | > 256
COc1cccc(S(=O)(=O)Nc2cccc3ccc(CN(C)C)nc23)c1 [ZDR314, N-(2-((Dimethylamino)methyl)quinolin-8-yl)-3-methoxybenzenesulfonamide] | 128 (≈ 345 µM) | 0.25 (≈ 0.673 µM) | 256 (≈ 689 µM) | > 256 | > 256 | > 256
Cc1cccc(S(=O)(=O)Nc2cccc3ccc(CN(C)C)nc23)c1 [ZDR315, N-(2-((Dimethylamino)methyl)quinolin-8-yl)-3-methylbenzenesulfonamide] | > 256 | 0.25 (≈ 0.703 µM) | 256 (≈ 720 µM) | > 256 | > 256 | > 256
CN(C)Cc1ccc2cccc(NS(=O)(=O)CCC(F)(F)F)c2n1 [ZDR316, N-(2-((Dimethylamino)methyl)quinolin-8-yl)-3,3,3-trifluoropropane-1-sulfonamide] | > 256 | 0.125 (≈ 0.346 µM) | > 256 | > 256 | > 256 | > 256
CN(C)Cc1ccc2cccc(NS(=O)(=O)Cc3ccccc3)c2n1 [ZDR317, N-(2-((Dimethylamino)methyl)quinolin-8-yl)-1-phenylmethanesulfonamide] | 256 (≈ 720 µM) | 0.25 (≈ 0.703 µM) | > 256 | 128 (≈ 360 µM) | > 256 | > 256
CC(C)S(=O)(=O)Nc1cccc2ccc(CN(C)C)nc12 [ZDR318, N-(2-((Dimethylamino)methyl)quinolin-8-yl)propane-2-sulfonamide] | 256 (≈ 833 µM) | 32 (≈ 104 µM) | > 256 | > 256 | > 256 | > 256

Further lines, results first:

MIC (S. uberis ATCC 19436; ATCC19436, No Zinc) [µg/mL] | MIC (S. uberis ATCC 19436; ATCC19436, Zinc (50 μM)) [µg/mL] | MIC (S. aureus ATCC 6538; ATCC6538, No Zinc) [µg/mL] | MIC (S. aureus ATCC 6538; ATCC6538, Zinc (50 μM)) [µg/mL] | MIC (E. coli ATCC 10596; [1]) [µg/mL] | MIC (E. coli ATCC 10596; [2]) [µg/mL] | SMILES
> 256 | 1 (≈ 2.47 µM) | > 256 | > 256 | > 256 | > 256 | COC(=O)c1sccc1S(=O)(=O)Nc1cccc2ccc(CN(C)C)nc12 [ZDR319, Methyl 3-(N-(2-((dimethylamino)methyl)quinolin-8-yl)sulfamoyl)thiophene-2-carboxylate]
256 (≈ 605 µM) | 0.0625 (≈ 0.148 µM) | > 256 | 128 (≈ 302 µM) | > 256 | > 256 | CN(C)Cc1ccc2cccc(NS(=O)(=O)Cc3ccc(C(F)(F)F)cc3)c2n1 [ZDR320, N-(2-((Dimethylamino)methyl)quinolin-8-yl)-1-(4-(trifluoromethyl)phenyl)methanesulfonamide]
256 (≈ 796 µM) | 0.25 (≈ 0.778 µM) | > 256 | 128 (≈ 398 µM) | > 256 | > 256 | CCCCS(=O)(=O)Nc1cccc2ccc(CN(C)C)nc12 [ZDR321, N-(2-((Dimethylamino)methyl)quinolin-8-yl)butane-1-sulfonamide]
> 256 | 0.25 (≈ 0.663 µM) | 128 (≈ 340 µM) | > 256 | > 256 | > 256 | CN(C)Cc1ccc2cccc(NS(=O)(=O)c3ccc(Cl)nc3)c2n1 [ZDR322, 6-Chloro-N-(2-((dimethylamino)methyl)quinolin-8-yl)pyridine-3-sulfonamide]
> 256 | 1 (≈ 3.27 µM) | > 256 | 256 (≈ 838 µM) | > 256 | > 256 | CN(C)Cc1ccc2cccc(NS(=O)(=O)C3CC3)c2n1 [ZDR323, N-(2-((Dimethylamino)methyl)quinolin-8-yl)cyclopropanesulfonamide]
256 (≈ 693 µM) | 1 (≈ 2.71 µM) | 256 (≈ 693 µM) | 256 (≈ 693 µM) | > 256 | > 256 | CN(C)Cc1ccc2cccc(NS(=O)(=O)c3ccc(C=O)cc3)c2n1 [ZDR324, N-(2-((Dimethylamino)methyl)quinolin-8-yl)-4-formylbenzenesulfonamide]
128 (≈ 335 µM) | 0.125 (≈ 0.327 µM) | 32 (≈ 83.8 µM) | 128 (≈ 335 µM) | 256 (≈ 670 µM) | > 256 | CN(C)Cc1ccc2cccc(NS(=O)(=O)c3ccc(Cl)s3)c2n1 [ZDR326, 5-Chloro-N-(2-((dimethylamino)methyl)quinolin-8-yl)thiophene-2-sulfonamide]
256 (≈ 642 µM) | 8 (≈ 20.1 µM) | > 256 | > 256 | > 256 | > 256 | CC(=O)Nc1cccc(S(=O)(=O)Nc2cccc3ccc(CN(C)C)nc23)c1 [ZDR327, N-(3-(N-(2-((Dimethylamino)methyl)quinolin-8-yl)sulfamoyl)phenyl)acetamide]
> 256 | 1 (≈ 2.92 µM) | > 256 | > 256 | > 256 | > 256 | CN(C)Cc1ccc2cccc(NS(=O)(=O)c3cccnc3)c2n1 [ZDR328, N-(2-((Dimethylamino)methyl)quinolin-8-yl)pyridine-3-sulfonamide]
128 (≈ 290 µM) | 0.125 (≈ 0.283 µM) | 32 (≈ 72.5 µM) | 32 (≈ 72.5 µM) | > 256 | > 256 | CN(C)Cc1ccc2cccc(NS(=O)(=O)c3ccc(SC(F)(F)F)cc3)c2n1 [ZDR330, N-(2-((Dimethylamino)methyl)quinolin-8-yl)-4-((trifluoromethyl)thio)benzenesulfonamide]
> 256 | 16 (≈ 41.6 µM) | > 256 | > 256 | > 256 | > 256 | CN(C)Cc1ccc2cccc(NS(=O)(=O)c3cccc(C(N)=O)c3)c2n1 [ZDR331, 3-(N-(2-((Dimethylamino)methyl)quinolin-8-yl)sulfamoyl)benzamide]
256 (≈ 618 µM) | 2 (≈ 4.83 µM) | > 256 | > 256 | > 256 | > 256 | COC(=O)Nc1ccc(S(=O)(=O)Nc2cccc3ccc(CN(C)C)nc23)cc1 [ZDR332, Methyl (4-(N-(2-((dimethylamino)methyl)quinolin-8-yl)sulfamoyl)phenyl)carbamate]
64 (≈ 140 µM) | 0.125 (≈ 0.274 µM) | 128 (≈ 280 µM) | 128 (≈ 280 µM) | > 256 | > 256 | CN(C)Cc1ccc2cccc(NS(=O)(=O)c3ccc(NC(=O)OC(C)(C)C)cc3)c2n1 [ZDR333, tert-Butyl (4-(N-(2-((dimethylamino)methyl)quinolin-8-yl)sulfamoyl)phenyl)carbamate]
